From PubChem BioAssay (NCI)
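Briefly, cells in 96-well plates were exposed to five compound concentrations for 48 h, and endpoints were estimated by linear interpolation. Definition used: TGI = concentration required for complete inhibition of growth.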

What was measured:
Experiment in all cases: DTP human tumour cell line panel, 48 h
[1] = test system: MDA-MB-435
[2] = test system: HCC-2998 colon
[3] = test system: SNB-75 CNS
[4] = test system: SF-539 CNS
[5] = test system: OVCAR-5 ovarian
[6] = test system: U251 CNS
[7] = test system: SW-620 colon
[8] = test system: MDA-N
[9] = test system: A498 renal
[10] = test system: SK-OV-3 ovarian
[11] = test system: CCRF-CEM leukemia
[12] = test system: K-562 leukemia
[13] = test system: NCI-H460 lung
[14] = test system: IGROV1 ovarian
[15] = test system: SK-MEL-2 melanoma
[16] = test system: 786-0 renal
[17] = test system: RXF 393 renal
[18] = test system: SNB-19 CNS
[19] = test system: HT29 colon
[20] = test system: ACHN renal

SMILES	TGI [1]	TGI [2]	TGI [3]	TGI [4]	TGI [5]	TGI [6]	TGI [7]	TGI [8]	TGI [9]	TGI [10]	TGI [11]	TGI [12]	TGI [13]	TGI [14]	TGI [15]	TGI [16]	TGI [17]	TGI [18]	TGI [19]	TGI [20]
O=C1c2c(ccc3c2CCCC3)CC12Cc1ccc3c(c1C2=O)CCCC3	> 100 µM	> 100 µM	> 100 µM	> 100 µM	> 100 µM	> 100 µM	> 100 µM	> 100 µM	> 100 µM	> 100 µM	> 100 µM	> 100 µM	> 100 µM	> 100 µM	> 100 µM	> 100 µM	> 100 µM	> 100 µM	> 100 µM	> 100 µM
O=[N+]([O-])C(C(Cl)=C(Cl)Cl)=C(N(Cc1ccccc1)Cc1ccccc1)N(Cc1ccccc1)Cc1ccccc1	79.8 µM	55.4 µM	> 100 µM	76.6 µM	> 100 µM	> 100 µM	> 100 µM	> 100 µM	86.6 µM	> 100 µM	60.6 µM	> 100 µM	> 100 µM	> 100 µM	98.3 µM	> 100 µM	> 100 µM	> 100 µM	> 100 µM	> 100 µM
COC(=O)C1=CC2CCCC1(O)C(C(C)=O)C2 (stereo not given)	> 100 µM	> 100 µM	> 31.6 µM	26.6 µM	> 100 µM	> 100 µM	> 100 µM	> 100 µM	> 100 µM	> 100 µM	> 68.3 µM	> 100 µM	> 100 µM	32.9 µM	> 100 µM	41.3 µM	> 100 µM	> 100 µM	> 100 µM	> 100 µM
